Here are results for one compound from ChEMBL document CHEMBL1157348, “The alkaloid conessine and analogues as potent histamine H3 receptor antagonists” (J Med Chem, 2008).

Molecules are shown by their SMILES.

The target in data set [1] is T1, Histamine H3 receptor (Homo sapiens, UniProt Q9Y5N1). As to the kind of experiment: Antagonist activity at H3 receptor assessed as inhibition of forskolin-induced cAMP release by SPA. The format is functional.
Data set [2] has as its target T2, Glucocorticoid receptor (Homo sapiens, UniProt P04150).
T2 sequence (P04150 whole entry): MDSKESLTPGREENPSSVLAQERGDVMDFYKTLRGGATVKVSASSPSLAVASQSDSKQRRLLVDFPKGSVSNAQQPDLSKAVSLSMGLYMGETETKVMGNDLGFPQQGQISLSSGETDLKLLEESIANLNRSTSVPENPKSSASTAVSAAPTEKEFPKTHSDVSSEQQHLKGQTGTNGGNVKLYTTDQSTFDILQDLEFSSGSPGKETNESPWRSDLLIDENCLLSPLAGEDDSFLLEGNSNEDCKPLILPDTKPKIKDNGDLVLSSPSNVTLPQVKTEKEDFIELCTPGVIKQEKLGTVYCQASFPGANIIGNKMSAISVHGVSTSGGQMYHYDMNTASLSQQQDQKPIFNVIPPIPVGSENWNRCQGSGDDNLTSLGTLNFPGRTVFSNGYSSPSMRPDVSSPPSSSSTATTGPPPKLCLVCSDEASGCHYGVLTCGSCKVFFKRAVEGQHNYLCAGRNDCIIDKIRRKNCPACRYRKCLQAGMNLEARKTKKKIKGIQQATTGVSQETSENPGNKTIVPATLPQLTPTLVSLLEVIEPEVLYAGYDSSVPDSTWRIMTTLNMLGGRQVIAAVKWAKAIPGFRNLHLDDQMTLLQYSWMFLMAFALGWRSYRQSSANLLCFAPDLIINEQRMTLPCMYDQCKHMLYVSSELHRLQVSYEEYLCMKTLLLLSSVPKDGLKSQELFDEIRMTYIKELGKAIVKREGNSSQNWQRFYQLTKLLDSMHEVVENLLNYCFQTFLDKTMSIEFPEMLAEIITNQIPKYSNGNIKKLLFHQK
As to the kind of experiment: Binding affinity at glucocorticoid receptor.

Data set [3] concerns the target Histamine H2 receptor (Homo sapiens, UniProt P25021). As to the kind of experiment: Displacement of [3H]tiotidine from human histamine H2 receptor. Particulars: read-out: Ki.
Data set [4] deals with T3, Alpha-2C adrenergic receptor (Homo sapiens, UniProt P18825).
T3 sequence (P18825 whole entry): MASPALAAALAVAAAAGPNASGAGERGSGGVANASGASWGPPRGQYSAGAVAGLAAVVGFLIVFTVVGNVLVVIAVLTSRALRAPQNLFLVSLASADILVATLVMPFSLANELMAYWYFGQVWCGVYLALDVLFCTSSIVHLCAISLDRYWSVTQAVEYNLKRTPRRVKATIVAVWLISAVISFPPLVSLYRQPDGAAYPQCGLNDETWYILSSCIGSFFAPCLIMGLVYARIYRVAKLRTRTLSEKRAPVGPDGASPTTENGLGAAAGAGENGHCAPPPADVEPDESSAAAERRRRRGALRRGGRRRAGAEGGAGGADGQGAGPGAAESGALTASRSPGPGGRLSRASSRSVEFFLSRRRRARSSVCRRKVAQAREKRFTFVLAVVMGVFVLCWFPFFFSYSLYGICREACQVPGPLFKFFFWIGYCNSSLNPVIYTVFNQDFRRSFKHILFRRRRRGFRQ
Briefly: Displacement of [3H]rauwolscine from human adrenergic alpha 2C4 receptor expressed in mouse LTK- cells. The class given is cell-based. (In general: Loss of bound radioactivity is the signal in a displacement assay; it reports binding, not function.)

Data set [5] concerns Rattus norvegicus. Briefly: Toxicity in rat assessed as CNS side effects at 1.3 to 13 mg/kg, ip. The class given is organism-based. More on the design: dose 1.3-13 mg/kg, route intraperitoneal. To be noted: in vivo.
A short description of data set [6]: Inhibition of CYP enzyme. The class given is ADME.
For data set [7], the target named is T4, Muscarinic acetylcholine receptor M1 (Homo sapiens, UniProt P11229).
T4 sequence (P11229 whole entry): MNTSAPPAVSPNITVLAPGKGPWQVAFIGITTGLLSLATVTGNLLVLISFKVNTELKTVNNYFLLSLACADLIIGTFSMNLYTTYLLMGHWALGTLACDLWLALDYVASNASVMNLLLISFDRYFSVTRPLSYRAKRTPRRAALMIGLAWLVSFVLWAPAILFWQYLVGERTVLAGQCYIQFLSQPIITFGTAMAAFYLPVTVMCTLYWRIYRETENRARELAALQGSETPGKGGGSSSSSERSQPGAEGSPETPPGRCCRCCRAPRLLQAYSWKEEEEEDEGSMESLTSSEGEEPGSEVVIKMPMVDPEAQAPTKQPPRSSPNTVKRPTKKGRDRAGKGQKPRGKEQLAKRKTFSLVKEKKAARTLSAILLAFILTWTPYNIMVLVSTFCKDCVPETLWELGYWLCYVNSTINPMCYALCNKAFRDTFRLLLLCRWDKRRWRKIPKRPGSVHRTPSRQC
As to the kind of experiment: Binding affinity at muscarinic M1 receptor.

A short description of data set [8]: Half life in rat. The format is ADME, organism-based. To be noted: in vivo.
Data set [9] has as its system Phospholipidosis. Briefly: In vitro phospholipidosis index at 6.25 uM compared to amiodarone at 10 uM. The class given is ADME, cell-based, Hepatocyte. To be noted: hepatocytes.
Data set [10] is described as follows: Oral bioavailability in rat. The format is ADME, organism-based. Particulars: in vivo.
The target of data set [11] is T1, Histamine H3 receptor. Briefly: Antagonist activity at H3 receptor assessed as inhibition of [35S]gammaGTP binding relative to control.
The target in data set [12] is T5, Progesterone receptor (Homo sapiens, UniProt P06401).
T5 sequence (P06401 whole entry): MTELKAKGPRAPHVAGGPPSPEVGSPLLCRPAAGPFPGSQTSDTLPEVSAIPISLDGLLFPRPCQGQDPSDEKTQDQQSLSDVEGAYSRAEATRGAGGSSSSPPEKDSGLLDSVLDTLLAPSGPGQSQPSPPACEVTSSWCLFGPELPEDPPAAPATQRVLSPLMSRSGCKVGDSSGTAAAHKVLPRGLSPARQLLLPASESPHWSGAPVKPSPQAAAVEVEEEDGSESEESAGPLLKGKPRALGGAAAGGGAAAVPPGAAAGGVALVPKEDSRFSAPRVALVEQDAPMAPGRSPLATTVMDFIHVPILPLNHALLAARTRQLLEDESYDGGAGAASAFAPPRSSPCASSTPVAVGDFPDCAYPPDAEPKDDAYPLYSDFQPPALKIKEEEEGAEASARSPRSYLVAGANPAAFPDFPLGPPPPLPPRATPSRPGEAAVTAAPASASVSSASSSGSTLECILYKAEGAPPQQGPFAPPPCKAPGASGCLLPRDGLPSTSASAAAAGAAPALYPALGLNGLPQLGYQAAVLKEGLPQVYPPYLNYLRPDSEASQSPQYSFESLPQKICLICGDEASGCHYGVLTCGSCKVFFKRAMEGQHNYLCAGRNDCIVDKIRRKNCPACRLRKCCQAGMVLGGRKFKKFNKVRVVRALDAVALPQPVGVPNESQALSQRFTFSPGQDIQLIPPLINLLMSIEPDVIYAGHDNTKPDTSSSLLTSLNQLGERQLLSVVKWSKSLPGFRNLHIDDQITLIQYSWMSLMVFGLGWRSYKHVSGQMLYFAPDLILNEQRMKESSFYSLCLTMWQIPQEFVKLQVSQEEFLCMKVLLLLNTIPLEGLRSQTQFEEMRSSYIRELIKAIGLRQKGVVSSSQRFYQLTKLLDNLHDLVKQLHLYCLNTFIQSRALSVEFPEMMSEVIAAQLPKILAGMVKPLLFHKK
Briefly: Binding affinity at progesterone receptor.

Data set [13] can be described thus: Selectivity ratio for human adrenergic alpha 2C4 receptor over human H3 receptor.

T1 sequence (Q9Y5N1 whole entry): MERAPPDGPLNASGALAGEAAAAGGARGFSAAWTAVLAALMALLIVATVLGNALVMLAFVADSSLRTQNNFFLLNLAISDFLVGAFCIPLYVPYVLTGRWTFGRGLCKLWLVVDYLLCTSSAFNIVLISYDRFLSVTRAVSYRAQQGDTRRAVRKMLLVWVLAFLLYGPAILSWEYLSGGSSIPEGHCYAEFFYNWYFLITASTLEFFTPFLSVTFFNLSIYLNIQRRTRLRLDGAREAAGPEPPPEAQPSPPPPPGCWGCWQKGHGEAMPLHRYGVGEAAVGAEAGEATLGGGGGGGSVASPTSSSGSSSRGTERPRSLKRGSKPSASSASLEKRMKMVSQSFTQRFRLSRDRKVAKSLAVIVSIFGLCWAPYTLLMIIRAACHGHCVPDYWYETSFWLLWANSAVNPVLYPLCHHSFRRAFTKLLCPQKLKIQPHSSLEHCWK
Chain of Histamine H2 receptor (P25021 whole entry): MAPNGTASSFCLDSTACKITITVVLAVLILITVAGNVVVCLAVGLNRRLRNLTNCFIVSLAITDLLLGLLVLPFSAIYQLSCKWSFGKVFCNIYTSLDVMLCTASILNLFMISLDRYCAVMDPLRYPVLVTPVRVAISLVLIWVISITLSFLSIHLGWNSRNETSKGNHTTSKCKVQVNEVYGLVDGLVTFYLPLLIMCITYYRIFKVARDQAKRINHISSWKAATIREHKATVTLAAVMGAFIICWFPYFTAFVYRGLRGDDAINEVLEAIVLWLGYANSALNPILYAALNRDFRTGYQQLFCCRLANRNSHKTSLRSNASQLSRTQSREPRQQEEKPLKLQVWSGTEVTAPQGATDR

As a reminder, the Kb is the affinity of an antagonist, worked out from how it opposes an agonist. In general, Ki refers to a dissociation constant, usually derived from enzyme kinetics or from competition with a known ligand. By IC50 is commonly meant the point on the concentration scale where inhibition reaches its midpoint. Low readings indicate higher potency, high ones lower potency. As a reminder, the half-life is how long it takes for the measured level to halve. A higher half-life goes with slow loss. For orientation: bioavailability means dose-corrected exposure relative to a reference, in per cent. For orientation: EC50 means the midpoint of the concentration-response curve. Take `CN[C@@H](C(=O)N(C)[C@H]1CC[C@@]2(C)C(=CC[C@H]3[C@@H]4CC[C@@H]5[C@H](C)N(C)C[C@@]54CC[C@@H]32)C1)C(C)C`: the Kb in [1] was determined as 4 nM. For the same compound, the inhibition constant (Ki) in [2] was above 30000 nM; in data set [3], above 10000 nM; in data set [4], 77.6 nM; in [7], 11 nM; in data set [12] it was above 30000 nM. Besides, the Activity entry in [5] is “Non-toxic”. In addition, the IC50 in [6] was above 10000 nM. Further, the half-life in data set [8] was 77 h. For the same compound, the Phospholipidosis_index in [9] is 0.42. In data set [10], this compound had a bioavailability of 65%. Further, the EC50 in [11] is 3.3 nM. In addition, in data set [13], the Selectivity ratio is 370.
